Measured values taken from US20150274777A1, “KETOAMIDE IMMUNOPROTEASOME INHIBITORS” (HOFFMANN-LA ROCHE INC., priority 2012, published 2015).

Experiments:
[1] = molecular target: T1, β5i (Homo sapiens, UniProt P20618+P28062); test: Cell-Based Proteasome Activity/Selectivity Assay (Ramos cells), substrate (ANW)2Rh110; conditions: highest concentration tested 20 μM, read-out: Ic50 ramos:ac-(anw)2-r110
T1 construct: protease activity associated with the proteasome complex in cultured cells; endogenous in cells; host or cells: Ramos cells
Source text: (§1) Cell-Based Proteasome Activity/Selectivity Assay
(§2) The Cell-Based Proteasome subunit activity/selectivity assay was a panel of 5 fluorogenic assays that independently measured the activity of β5c or β5i (chymotrypsin-like activity), β2c/2i (trypsin-like), and β1c or β1i (caspase-like) protease activity associated with the proteasome complex in cultured cells. Specifically, the following substrates were used for respective subunit activities: β1i: (PAL)2Rh110, β1c: (LLE)2 Rh110, β2c/2i: (KQL)2Rh110, β5c: (WLA)2Rh110, β5i: (ANW)2Rh110. The following procedure was followed:
(§3) Cell preparation: Plated 25 μl of Ramos cells (2×10^6/ml in DPBS) into half area plate (PerkinElmer Cat 6005569) to final 5×10^4 cells/well. Added 0.5 μl of 100×4-fold serial diluted test compounds or DMSO to each well. Highest concentration of compound tested was 20 μM, thus compound serial dilution started from […]. Incubated for 30 minutes at 37° C. Then equilibrated at room temperature for 15 minutes. Added 25 μl of 2× reaction mix consisting of 0.025% digitonin, 20 μM of each substrates and 0.5M sucrose in DPBS. Shaked for one minute @ 700 rpm. Incubated for 120 min at room temperature. Then read the plates with an Envision multilabel plate reader (PerkinElmer) with 500 nm excitation/519 nm emission.

[2] = molecular target: T2, β5c (Homo sapiens, UniProt P20618+P28074); test: Cell-Based Proteasome Activity/Selectivity Assay (Ramos cells), substrate (WLA)2Rh110; conditions: highest concentration tested 20 μM
T2 construct: protease activity associated with the proteasome complex in cultured cells; endogenous in cells; host or cells: Ramos cells
Source text: as §1, §2, §3

[3] = tested on: β2c/2i; test: Cell-Based Proteasome Activity/Selectivity Assay (Ramos cells), substrate (KQL)2Rh110; conditions: highest concentration tested 20 μM
Source text: as §1, §2, §3

[4] = molecular target: T3, β1i (Homo sapiens, UniProt P28065+P40306); test: Cell-Based Proteasome Activity/Selectivity Assay (Ramos cells), substrate (PAL)2Rh110; conditions: highest concentration tested 20 μM
T3 construct: protease activity associated with the proteasome complex in cultured cells; endogenous in cells; host or cells: Ramos cells
Source text: as §1, §2, §3

[5] = molecular target: T4, β1c (Homo sapiens, UniProt P28072+Q99436); test: Cell-Based Proteasome Activity/Selectivity Assay (Ramos cells), substrate (LLE)2 Rh110; conditions: highest concentration tested 20 μM
T4 construct: protease activity associated with the proteasome complex in cultured cells; endogenous in cells; host or cells: Ramos cells
Source text: as §1, §2, §3

[6] = tested on: IP10 level in PBMCs stimulated with CpG Type A; test: PBMC IP-10 Assay; format: cell-based; conditions: CpG Type A 2.5 μM
Description: PBMCs were isolated from whole blood as follows: Blood was collected in a sterile environment in heparinized tubes. Blood was diluted with an equal volume PBS/2% FCS and 30 ml of this mixture was added to ACCUSPIN tubes containing 15 ml Histopaque-1077 already centrifuged at 800 g for 30 seconds and warmed up at room temperature. The tubes were then centrifuged at 800 g for 20 minutes at room temperature with no brake. The mononuclear band, just above the polyethylene frit, was removed by Pasteur pipet. These mononuclear cells were washed three times with sterile PBS, counted, and resuspended in RPMI 1640 supplemented with 10% heat inactivated fetal calf serum, 10 mM HEPES, 1 mM sodium pyruvate, penicillin (50 U/ml), streptomycin (50 μg/ml) and glutamine (2 mM) to approximately 1.5×10^6/ml. Approximately 2×10^5 cells/well were plated in 96 well tissue culture plates (BD Falcon 353072), and preincubated 60 mi/37° C. with a titration of compounds, in a final concentration of 1% DMSO. Cells were then stimulated with CpG Type A (Invivogen, Cat #tlrl-2216; ODN 2216) at a final concentration of 2.5 μM. Cells were incubated overnight, and supernatants were removed. PBMC viability of cells remaining in the well was measured with ATPlite luminescence assay (Perkin-Elmer) per the manufacturer's instructions. Luminescence was measured on the Perkin-Elmer Envision, using the luminescence filter. IP10 level was measured with CXCL10/IP10 AlphaLISA kit (Perkin-Elmer) per the manufacturer's instructions, except halving all volumes. Fluorescence was measured on the Envision Multilabel plate reader, using the AlphaScreen standard settings.

Row | SMILES | IC50 [1] [nM] | IC50 [2] [nM] | IC50 [3] [nM] | IC50 [4] [nM] | IC50 [5] [nM] | EC50 [6] [nM]
1 | COc1ccc(C[C@H](NC(=O)[C@H](C)NC(=O)C2=C(C)c3ccccc3C2)C(=O)N[C@@H](Cc2ccccc2)C(=O)C(=O)NCc2ccccc2)cc1 [Example 25, 3-Methyl-1H-indene-2-carboxylic acid {(S)-1-[(S)-1-((S)-1-benzyl-2-benzylcarbamoyl-2-oxo-ethylcarbamoyl)-2-(4-methoxy-phenyl)-ethylcarbamoyl]-ethyl}-amide] | 9 | 846 | > 20000 | > 20000 | > 20000 | 1080
2 | COc1ccc(C[C@H](NC(=O)[C@H](C)NC(=O)CN2CCOc3ccccc32)C(=O)N[C@@H](Cc2ccccc2)C(=O)C(=O)NCc2ccccc2)cc1 [Example 35, (S)—N-Benzyl-3-[(S)-2-[(S)-2-(2-2,3-dihydro-benzo[1,4]oxazin-4-yl-acetylamino)-propionylamino]-3-(4-methoxy-phenyl)-propionylamino]-2-oxo-4-phenyl-butyramide] | 4 | 261 | > 20000 | 395 | 13400 | 615
3 | CCCC[C@H](NC(=O)[C@H](Cc1c[nH]c2ccccc12)NC(=O)[C@H](C)NC(=O)C1=C(C)c2ccccc2C1)C(=O)C(=O)N[C@@H](C)c1ccccc1 [Example 7] | 102 | 3050 | > 20000 | 712 | 13200 | 4010
4 | C[C@H](NC(=O)OCc1ccccc1)C(=O)N[C@@H](Cc1c[nH]c2ccccc12)C(=O)N[C@@H](Cc1ccccc1)C(=O)C(=O)NCc1ccccc1 [Example 16, {(S)-1-[(S)-1-((S)-1-Benzyl-2-benzylcarbamoyl-2-oxo-ethylcarbamoyl)-2-(1H-indol-3-yl)-ethylcarbamoyl]-ethyl}-carbamic acid benzyl ester] | 17 | 926 | > 20000 | 274 | 18300 | 1330
5 | CCCCC(NC(=O)[C@H](COC)NC(=O)[C@H](C)NC(=O)c1cc(C)on1)C(=O)C(=O)NCc1ccccc1 (mixture of isomers) [Example 6, 5-Methyl-isoxazole-3-carboxylic acid {(S)-1-[(S)-1-((S)-1-benzylaminooxalyl-pentylcarbamoyl)-2-methoxy-ethylcarbamoyl]-ethyl}-amide] | 1040 | 5520 | > 20000 | 949 | > 20000 | 13600
6 | COc1ccc(C[C@H](NC(=O)[C@H](C)NC(=O)CN2CCOCC2)C(=O)N[C@@H](Cc2ccccc2)C(=O)C(=O)NCc2ccccc2)cc1 [Example 46, (S)—N-Benzyl-3-{(S)-3-(4-methoxy-phenyl)-2-[(S)-2-(2-morpholin-4-yl-acetylamino)-propionylamino]-propionylamino}-2-oxo-4-phenyl-butyramide] | 121 | 4410 | > 20000 | 2170 | > 20000 | 5780
7 | COc1ccc(C[C@H](NC(=O)[C@H](C)NC(=O)c2cc3ncccc3n2C)C(=O)N[C@@H](Cc2ccccc2)C(=O)C(=O)NCc2ccccc2)cc1 [Example 45] | 13 | 250 | > 20000 | 496 | 6380 | 1320
8 | C[C@H](NC(=O)OCc1ccccc1)C(=O)N[C@@H](Cc1ccccn1)C(=O)N[C@@H](Cc1ccccc1)C(=O)C(=O)NCc1ccccc1 [Example 50, {(S)-1-[(S)-1-((S)-1-Benzyl-2-benzylcarbamoyl-2-oxo-ethylcarbamoyl)-2-pyridin-2-yl-ethylcarbamoyl]-ethyl}-carbamic acid benzyl ester] | 266 | 2890 | > 20000 | 1280 | > 20000 | 2740
9 | COc1ccc(C[C@H](NC(=O)[C@H](C)NC(=O)C2Cc3ccccc3C2)C(=O)NC2(C(=O)C(=O)NCc3ccccc3)Cc3ccccc3C2)cc1 [Example 59, Indan-2-carboxylic acid {(S)-1-[(S)-1-(2-benzylaminooxalyl-indan-2-ylcarbamoyl)-2-(4-methoxy-phenyl)-ethylcarbamoyl]-ethyl}-amide] | 89 | 1360 | > 20000 | > 20000 | > 20000 | 11700
10 | CCCC[C@H](NC(=O)[C@H](Cc1ccc(OC)cc1)NC(=O)[C@H](C)NC(=O)CN1CCOCC1)C(=O)C(=O)NCc1ccccc1 [Example 3, (S)-3-{(S)-3-(4-Methoxy-phenyl)-2-[(S)-2-(2-morpholin-4-yl-acetylamino)-propionylamino]-propionylamino}-2-oxo-heptanoic acid benzylamide] | 394 | 3200 | > 20000 | 560 | > 20000 | 7960

More lines, main results first:

Row | IC50 [1] [nM] | IC50 [2] [nM] | IC50 [3] [nM] | IC50 [4] [nM] | IC50 [5] [nM] | SMILES | EC50 [6] [nM]
11 | 8 | 1010 | > 20000 | 1170 | 13600 | CC1=C(C(=O)N[C@@H](C)C(=O)N[C@@H](Cc2c[nH]c3ccccc23)C(=O)N[C@@H](Cc2ccccc2)C(=O)C(=O)NCc2ccccc2)Cc2ccccc21 [Example 48, 3-Methyl-1H-indene-2-carboxylic acid {(S)-1-[(S)-1-((S)-1-benzyl-2-benzylcarbamoyl-2-oxo-ethylcarbamoyl)-2-(1H-indol-3-yl)-ethylcarbamoyl]-ethyl}-amide] | 615
12 | 46 | 1290 | > 20000 | 1140 | 14700 | COc1ccc(C[C@H](NC(=O)[C@H](C)NS(=O)(=O)c2ccccc2C)C(=O)N[C@@H](Cc2ccccc2)C(=O)C(=O)NCc2ccccc2)cc1 [Example 40, (S)—N-Benzyl-3-{(S)-3-(4-methoxy-phenyl)-2-[(S)-2-(toluene-2-sulfonylamino)-propionylamino]-propionylamino}-2-oxo-4-phenyl-butyramide] | 1830
13 | 5 | 272 | 5710 | 441 | 7050 | CC(C)C[C@H](NC(=O)[C@H](C)NC(=O)C1Cc2ccccc2C1)C(=O)N[C@@H](Cc1ccccc1)C(=O)C(=O)NCc1ccccc1 [Example 24, Indan-2-carboxylic acid {(S)-1-[(S)-1-((S)-1-benzyl-2-benzylcarbamoyl-2-oxo-ethylcarbamoyl)-3-methyl-butylcarbamoyl]-ethyl}-amide] | 433
14 | 26 | 815 | > 20000 | 34 | > 20000 | CCCC[C@H](NC(=O)[C@H](Cc1c[nH]c2ccccc12)NC(=O)[C@H](C)NC(=O)OCc1ccccc1)C(=O)C(=O)NCc1ccccc1 [Example 9, {(S)-1-[(S)-1-((S)-1-Benzylaminooxalyl-pentylcarbamoyl)-2-(1H-indol-3-yl)-ethylcarbamoyl]-ethyl}-carbamic acid benzyl ester] | 5290
15 | 124 | 3300 | > 20000 | 1100 | > 20000 | C[C@H](NC(=O)CN1CCOCC1)C(=O)N[C@@H](Cc1c[nH]c2ccccc12)C(=O)N[C@@H](Cc1ccccc1)C(=O)C(=O)NCc1ccccc1 [Example 22, (S)—N-Benzyl-3-{(S)-3-(1H-indol-3-yl)-2-[(S)-2-(2-morpholin-4-yl-acetylamino)-propionylamino]-propionylamino}-2-oxo-4-phenyl-butyramide] | 5780
